Measurements reported in ChEMBL document CHEMBL1133425, “Synthesis and dopaminergic activity of heterocyclic analogues of 5,6-dihydroxy-2-aminotetralins” (2000).

Key:
Oryctolagus cuniculus [1] = species: Oryctolagus cuniculus; experiment: D1-like activity was evaluated as pD2 on a superfused rabbit splenic artery; assay type: functional
Oryctolagus cuniculus [2] = species: Oryctolagus cuniculus; experiment: D2-like activity was evaluated as pD2 on a superfused rabbit ear artery; assay type: functional

CS(=O)(=O)c1ccc(CCNCCCCCCNCCc2cc[nH]c2)cc1
pD2 (Oryctolagus cuniculus [1]): <5

CCCN(CCCCCCNCCc1ccc(S(C)(=O)=O)cc1)C1CCc2ncccc2C1 (centres undefined)
pD2 (Oryctolagus cuniculus [2]): 8.4 | pD2 (Oryctolagus cuniculus [1]): <5

CCCN(CCCCCCN(CCC)CCc1cccnc1)CCc1ccc(S(C)(=O)=O)cc1
pD2 (Oryctolagus cuniculus [2]): <6 | pD2 (Oryctolagus cuniculus [1]): 5.5

CCCN(CCCCCCNCCc1ccc(S(C)(=O)=O)cc1)[C@H]1CCc2c(ccc(O)c2O)C1
pD2 (Oryctolagus cuniculus [2]): 10.1 | pD2 (Oryctolagus cuniculus [1]): 8.6

CCCN(CCCCCCNCCc1ccc(S(C)(=O)=O)cc1)C1CCc2[nH]ccc2C1 (centres undefined)
pD2 (Oryctolagus cuniculus [1]): <5

CCCN(CCC)C1CCc2c(ccc(O)c2O)C1 (centres undefined)
pD2 (Oryctolagus cuniculus [2]): 9.8 | pD2 (Oryctolagus cuniculus [1]): 6.5

CCCN(CCCCCCN(CCC)C1CCc2nc(O)ccc2C1)CCc1ccc(S(C)(=O)=O)cc1 (centres undefined)
pD2 (Oryctolagus cuniculus [1]): <5

CS(=O)(=O)c1ccc(CCNCCCCCCNC2CCc3[nH]ccc3C2)cc1 (centres undefined)
pD2 (Oryctolagus cuniculus [2]): <6 | pD2 (Oryctolagus cuniculus [1]): <5

CS(=O)(=O)c1ccc(CCNCCCCCCNCCc2cccnc2)cc1
pD2 (Oryctolagus cuniculus [2]): 5.5 | pD2 (Oryctolagus cuniculus [1]): <5

CS(=O)(=O)c1ccc(CCNCCCCCCNC2CCc3ncccc3C2)cc1 (centres undefined)
pD2 (Oryctolagus cuniculus [2]): 6.3 | pD2 (Oryctolagus cuniculus [1]): <5

CCCN(CCCCCCNCCc1ccc(S(C)(=O)=O)cc1)C1CCc2nc(N)sc2C1 (centres undefined)
pD2 (Oryctolagus cuniculus [2]): 8.4 | pD2 (Oryctolagus cuniculus [1]): 6.3
